These results are taken from US7449312B2, “Kit for conducting a polymerase chain reaction” (The Secretary of State for Defense in Her Britannic …, priority 2001, dated 2008).

Read-outs that look alike come from different tables or passages of the source.

One assay addresses Taq DNA polymerase (Thermus aquaticus, UniProt P19821). Conditions: for suppression of PCR: results not shown. Here is the method: Using Taq DNA polymerase, a standard 500 bp lambda template PCR using the following reagents, was conducted in the presence of differing quantities of the inorganic pyrorphosphate, tetrasodium pyrophosphate decahydrate (PPi).
1× Reaction Buffer: 10 mM Tris. pH 8.0, 50 mM KCl.
(§1) PCR conditions for the assay were as follows:
The PPi was added such that the final concentration in the reaction mixture was 0, 1, 2, 3, 4 and 5 mM. In this Figure, the lanes correspond to the following concentrations of PPi
In order to eliminate this possibility, the procedure of Example 1 with 3 mM PPi was repeated in the presence of various concentrations of magnesium ions.
The example was repeated using concentrations of PPi of less than 1 mM.

Assay [1] has as its system thermostable DNA polymerases (Taq, Tbr, Tth, TspNH, Pfu, 9°N exo-, VENT, Accurase). Description: PCR with different thermostable DNA polymerases, with PPi and Sac PPase. Type of assay: biochemical. Conditions: FIGS. 7a, 7b, 8b. An excerpt:
A variety of thermostable DNA polymerases were employed in the method of the invention and some comparative assays. These included several non-proofreading Thermus sp. DNA polymerases, proof-reading hyperthermophilic archael DNA polymerases and mixes of non-proofreading and proofreading DNA polymerases.
They were all tested using the 500 bp lambda PCR as described in Example 1 (FIGS. 7a and 7b), and several using the Angiotensin assay as described in Example 4 (FIGS. 8a and 8b).

Assay [2] can be described thus: 500 bp lambda PCR in the presence of PPi and PPase. Type of assay: biochemical. The settings on record: 0.2 u Sac PPase; 95° C. for 5 mins. An excerpt: The 500 bp lambda PCR of Example 1 was repeated, but this time, 0.2 u of Sulfolobus acidocaldarius PPase (Sac PPase) was included in reactions containing pyrophosphate (PPi).
The results are shown in FIG. 3 where the lanes represent the following reactions: […]

Assay [3] concerns 321 bp fragment of the human angiotensin gene. Description: Angiotensin PCR assay requiring a HotStart reaction. Type of assay: biochemical. Conditions: up to two hours at ambient temperature; 0.2 u Sac PPase, 3 mM PPi.
Text: The method of the invention was then applied to an assay system that requires a “HotStart” reaction in order to generate a PCR product of the correct size.
The assay is based around the amplification of a 321 bp fragment of the human angiotensin gene. It has been recognised that the assay will only generate the correct amplification product in the presence of betaine (EP-A-0962526—see in particular Example 8).
Without betaine a HotStart DNA polymerase generates few non-specific amplification products or no products at all whereas a non-HotStart DNA polymerase PCR generates a large number of non-specific amplification products.
The PCR conditions used in the Angiotensin assay can be summarised as follows.
as §1
The reaction was conducted using a PE9700 Instrument in the presence of 3 mM PPi and 0.2 u PPase as described in Example 3.
The effect of leaving a PCR mixture containing 0.2 u Sac PPase and 3 mM PPi at room temperature 20° C. for various lengths of time prior to conducting the Angiotensin assay, was investigated. Although Sac PPase is a thermostable enzyme, it was possible that there would be a small level of enzyme activity at ambient temperatures. This might lead to insufficient PPi in the reaction to inhibit/stop the DNA polymerase leading to primer extension and lack of “HotStart” functionality. […]

Taq DNA polymerase, sequence (P19821 whole entry): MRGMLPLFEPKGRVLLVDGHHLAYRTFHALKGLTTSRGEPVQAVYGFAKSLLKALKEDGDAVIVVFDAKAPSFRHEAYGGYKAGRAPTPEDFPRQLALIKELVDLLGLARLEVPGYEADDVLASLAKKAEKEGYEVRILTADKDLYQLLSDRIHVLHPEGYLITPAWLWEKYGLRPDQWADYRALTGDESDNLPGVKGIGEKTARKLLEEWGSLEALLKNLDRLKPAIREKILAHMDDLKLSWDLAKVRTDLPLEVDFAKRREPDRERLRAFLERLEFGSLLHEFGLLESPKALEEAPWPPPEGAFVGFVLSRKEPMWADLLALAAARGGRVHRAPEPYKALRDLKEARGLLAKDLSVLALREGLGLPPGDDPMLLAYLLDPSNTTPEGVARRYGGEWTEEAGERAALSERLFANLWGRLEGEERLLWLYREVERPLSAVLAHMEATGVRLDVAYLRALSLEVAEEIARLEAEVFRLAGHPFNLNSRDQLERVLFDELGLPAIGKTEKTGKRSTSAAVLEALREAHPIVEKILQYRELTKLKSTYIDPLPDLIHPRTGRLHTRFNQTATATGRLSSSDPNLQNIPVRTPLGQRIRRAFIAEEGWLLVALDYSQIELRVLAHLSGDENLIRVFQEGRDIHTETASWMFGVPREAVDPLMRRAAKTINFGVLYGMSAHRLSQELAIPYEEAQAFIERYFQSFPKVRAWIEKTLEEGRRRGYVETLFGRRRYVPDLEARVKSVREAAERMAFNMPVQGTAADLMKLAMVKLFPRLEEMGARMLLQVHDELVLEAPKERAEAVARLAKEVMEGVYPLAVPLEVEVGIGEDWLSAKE

As to `O.O.O.O.O.O.O.O.O.O.O=P([O-])([O-])OP(=O)([O-])[O-].[Na+].[Na+].[Na+].[Na+]` [PPi, tetrasodium pyrophosphate decahydrate], the “suppression of PCR” value at Taq DNA polymerase (0.4 mM PPi) was “did not completely suppress the PCR”; on Taq DNA polymerase (0.6 mM PPi), “no PCR occurred”. On Taq DNA polymerase (3 mM PPi, Mg++ up to 10 mM final concentration, FIG. 2), the “PCR with increasing magnesium ion concentration” value was “does not allow PCR to occur”. Further, the “PCR product formation in presence of PPi” value on Taq DNA polymerase (PPi 1, 2, 3, 4 and 5 mM final, 1.5 mM MgCl2, FIG. 1) was “no PCR product was produced”. The “inhibition of DNA polymerases by PPi” value in assay [1] (3 mM PPi, no PPase) was “inhibited”.

B1: Sac PPase: thermostable pyrophosphatase of Sulfolobus acidocaldarius, obtainable from GeneSys Limited (protein, UniProt P50308 1-173, looked up)
Inorganic pyrophosphatase: MKLSPGKNAPDVVNVLVEIPQGSNIKYEYDDEEGVIKVDRVLYTSMNYPFNYGFIPGTLEEDGDPLDVLVITNYQLYPGSVIEVRPIGILYMKDEEGEDAKIVAVPKDKTDPSFSNIKDINDLPQATKNKIVHFFEHYKELEPGKYVKISGWGSATEAKNRIQLAIKRVSGGQ
As for B1, the “destruction of pyrophosphate so that the PCR reaction could proceed” value in assay [2] is on record as “sufficient to destroy the pyrophosphate”. In addition, the “ambient temperature digestion of PPi by PPase” value in assay [3] is listed as “insufficient ambient temperature digestion of the PPi”. For the same molecule, in assay [1] (3 mM PPi and 0.2u Sac PPase), the “reversal of PPi inhibition by PPase” value is reported as “inhibition could be overcome”.
